Measured values published in patent US8586613B2, “Pyridinium and quinolinium derivatives” (Universidad de Granada, priority 2004, dated 2013).
Where two headings read alike, the source gives them in different places.

Experiments:
Human ChoK = target: T1, Human ChoK (Homo sapiens, UniProt P35790); assay: Ex vivo assay of the activity of human ChoK (recombinant choline kinase expressed in E. coli); format: biochemical
T1 construct: made in house; host or cells: E. coli
Description: Recombinant choline kinase expressed in E. coli in the buffer assay (100 mM Tris-HCl pH 8.0, 100 mM MgCl2, 10 mM ATP and 200 μM of choline in the presence of methyl[^14C]-choline chloride (50-60 μCi/mmol)) was used for the ex vivo assays. […] The samples were washed with diethyl ether saturated with water and were lyophilized. The hydrophilic choline derivatives were resolved in thin layer chromatography plates according to a described process [Ramírez, A., Penalva, V., Lucas, L., Lacal, J. C.

HT-29 cells = assay: HT-29 cell proliferation assay (Crystal Violet); format: cell-based, human; details: six days of treatment
Description: The HT-29 cells were seeded in 24-well plates (35×10^3 cells/well) and were incubated for 24 hours. Then the cells were treated with different concentrations of ChoK inhibitors in the usual culture medium. Three days later, the wells were aspirated and both fresh medium and more amount of drug were added, and the cells were maintained for three more days. The quantification of the remaining cells in each well was carried out by means of the Crystal Violet method [Gillies, R. J., Didier, N., Denton, M. Anal. Biochem. 159, 109-113 (1986)], with some modifications [Hernández-Alcoceba, R., Saniger, L., Campos, J., Núñez, M. C., Khaless, F., Gallo, M. Á., Espinosa, A., Lacal, J. C. Oncogene, 15, 2289-2301 (1997)]. Briefly, the cells were washed with TD buffer and fixed with 1% glutaraldehyde for 15 minutes. After washing again with TD, the cell nuclei were coloured with 0.1% Crystal Violet for at least 30 minutes and washed three times with distilled water. The adsorbed colouring was resuspended in 10% acetic acid and the absorbance at 595 nm was determined in a spectrometer. […] This value determined by iterative curve adjustment. Two values are determined for each point of the curve, the experiment was repeated two or three times and the mean values were estimated. In the few cases in which the two values differed more than 50%, a third experiment was carried out to determine the real value. The IC50 value as a potency measurement is used to relate the biological activity of the compounds with their chemical structure.

[1] = recombinant human ChoK, 37° C., 30 minutes

T1 sequence (P35790 whole entry): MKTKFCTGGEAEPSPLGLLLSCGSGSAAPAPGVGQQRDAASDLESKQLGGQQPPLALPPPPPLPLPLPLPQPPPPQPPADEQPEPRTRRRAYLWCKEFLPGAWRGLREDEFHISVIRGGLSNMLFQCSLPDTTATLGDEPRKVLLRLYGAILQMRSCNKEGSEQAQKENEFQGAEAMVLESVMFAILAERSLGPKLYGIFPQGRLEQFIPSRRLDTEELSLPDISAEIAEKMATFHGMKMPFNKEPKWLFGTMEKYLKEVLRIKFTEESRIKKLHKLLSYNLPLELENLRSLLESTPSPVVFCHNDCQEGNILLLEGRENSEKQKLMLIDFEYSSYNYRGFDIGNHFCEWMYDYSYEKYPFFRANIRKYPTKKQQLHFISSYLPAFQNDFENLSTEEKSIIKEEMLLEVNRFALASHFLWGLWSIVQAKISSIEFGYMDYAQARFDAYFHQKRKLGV

Molecule | IC50 (Human ChoK; [1]) [nM] | IC50 (HT-29 cells) [nM] | IC50 (HT-29 cells; Homo sapiens, 144 h) [nM] | IC50 (Human ChoK) [nM]
1,1′-(benzene-1,3-diylmethylene)bis[4-(4-chloro-N-methylanilino)pyridinium]dibromide [Compound 1] | 5700 | 3300 | – | –
1,1′-(biphenyl-3,3′-diylmethylene)bis[4-(3,5-dichloro-N-methylanilino)pyridinium]dibromide [Compound 4] | – | 1800 | – | –
CN(c1ccccc1)c1cc[n+](Cc2cccc(-c3cccc(C[n+]4ccc(N(C)c5ccccc5)cc4)c3)c2)cc1.[Br-].[Br-] [Compound 2, 1,1′-(biphenyl-3,3′-diylmethylene)bis[4-(N-methylanilino)pyridinium]dibromide] | 420 | 2200 | – | –
CN(c1ccc(Cl)cc1)c1cc[n+](Cc2cccc(-c3cccc(C[n+]4ccc(N(C)c5ccc(Cl)cc5)c5ccccc54)c3)c2)c2ccccc12.[Br-].[Br-] [Compound 5, 1,1′-(biphenyl-3,3′-diylmethylene)bis[4-(4-chloro-N-methylanilino)quinolinium]dibromide] | – | 1600 | – | –
CN(c1ccc(Cl)cc1)c1cc[n+](Cc2cccc(-c3cccc(C[n+]4ccc(N(C)c5ccc(Cl)cc5)c5ccc(Cl)cc54)c3)c2)c2cc(Cl)ccc12 [Compound 6, 1,1′-(biphenyl-3,3′-diylmethylene)bis[4-(4-chloro-N-methylanilino)-7-chloroquinolinium]dibromide] | 5700 | – | 1900 | –
CN(c1ccc(Cl)cc1)c1cc[n+](Cc2ccc(-c3ccc(C[n+]4ccc(N(C)c5ccc(Cl)cc5)c5ccc(Cl)cc54)cc3)cc2)c2cc(Cl)ccc12 [Compound 8, 1,1′-(biphenyl-4,4′-diylmethylene)bis[4-(4-chloro-N-methylanilino)-7-chloroquinolinium]dibromide] | 11400 | – | 1200 | –
CN(c1ccc(Cl)cc1)c1cc[n+](Cc2ccc(CCc3ccc(C[n+]4ccc(N(C)c5ccc(Cl)cc5)c5ccccc54)cc3)cc2)c2ccccc12 [Compound 9, 1,1′-[ethylenebis(benzene-1,4-diylmethylene)]bis[4-(4-chloro-N-methylanilino)quinolinium]dibromide] | 4800 | – | 700 | –
CN(c1ccc(Cl)cc1)c1cc[n+](Cc2ccc(CCc3ccc(C[n+]4ccc(N(C)c5ccc(Cl)cc5)c5ccc(Cl)cc54)cc3)cc2)c2cc(Cl)ccc12 [Compound 10, 1,1′-[ethylenebis(benzene-1,4-diylmethylene)]bis[4-(4-chloro-N-methylanilino)-7-chloroquinolinium]dibromide] | 5700 | – | 800 | –
c1cc(C[n+]2ccc(N3CCCC3)cc2)cc(-c2cccc(C[n+]3ccc(N4CCCC4)cc3)c2)c1 [EC1, reference compound] | 5800 | – | – | –
c1cc(C[n+]2ccc(N3CCCCC3)cc2)cc(-c2cccc(C[n+]3ccc(N4CCCCC4)cc3)c2)c1 [EC2, reference compound] | – | – | 1600 | 1900
CN(C)c1cc[n+](Cc2cccc(-c3cccc(C[n+]4ccc(N(C)C)c5ccc(Cl)cc54)c3)c2)c2cc(Cl)ccc12 [EC3, reference compound] | 9600 | – | 700 | –
Clc1ccc2c(N3CCCC3)cc[n+](Cc3cccc(-c4cccc(C[n+]5ccc(N6CCCC6)c6ccc(Cl)cc65)c4)c3)c2c1 [EC4, reference compound] | 1200 | – | 400 | –
Clc1ccc2c(N3CCCC3)cc[n+](Cc3ccc(CCc4ccc(C[n+]5ccc(N6CCCC6)c6ccc(Cl)cc65)cc4)cc3)c2c1 [EC5, reference compound] | 1000 | – | 200 | –
CN(C)c1cc[n+](Cc2ccc(CCCc3ccc(C[n+]4ccc(N(C)C)cc4)cc3)cc2)cc1 [EC6, reference compound] | 22000 | – | 2500 | –
